Test results as given in ChEMBL document CHEMBL3885861, “Open TG-GATES”.

Species: Rattus norvegicus
Test: Open TG-GATES - Regimen: Daily Repeat
Type: toxicity, organism-based, Sprague-Dawley
Set-up: regimen Daily Repeat, gender Male, age 6 weeks
Conditions: in vivo, po, route gavage; for APTT / Bas / Eos / Fbg / Hb / Ht / Lym / MCH / MCHC / MCV / Mono / Neu / PT / Plat / RBC / Ret / WBC: tissue Blood; for KIDNEY_L / KIDNEY_R / KIDNEY_TOTAL: tissue Kidney; for LIVER: tissue Liver; for A/G / ALP / ALT / AST / BUN / CRE / Ca / Cl / DBIL / GLC / IP / K / LDH / Na / PL / RALB / TBIL / TC / TG / TP / gamma-GTP: tissue Plasma
[1] = 100 mg/kg, 72 h, dose level Middle, time 3 day
[2] = 100 mg/kg, […], dose level Middle, time 7 day
[3] = 100 mg/kg, […], dose level Middle, time 14 day
[4] = 100 mg/kg, […], dose level Middle, time 28 day
[5] = 200 mg/kg, 72 h, dose level High, time 3 day
[6] = 200 mg/kg, […], dose level High, time 7 day
[7] = 200 mg/kg, […], dose level High, time 14 day
[8] = 200 mg/kg, […], dose level High, time 28 day

NNC(=O)c1ccncc1 [ISONIAZID]
TERMINAL_BW [1]: 217.2 g
APTT [1]: 15.8 s
Bas [1]: 0%
Eos [1]: 0.6%
Fbg [1]: 245.2 mg/dL
Hb [1]: 13.4 g/dL
Ht [1]: 40.2%
Lym [1]: 82.2%
MCH [1]: 21.8 pg
MCHC [1]: 33.4%
MCV [1]: 65.2 fL
Mono [1]: 5%
Neu [1]: 12.2%
PT [1]: 12.1 s
Plat [1]: 115.4 x10_4/uL
RBC [1]: 616.6 x10_4/ul
Ret [1]: 7.3%
WBC [1]: 87 x10_2/uL
KIDNEY_L [1]: 1.1 g
KIDNEY_R [1]: 1.1 g
KIDNEY_TOTAL [1]: 2.1 g
LIVER [1]: 11.5 g
A/G [1]: 1.7
ALP [1]: 962 IU/L
ALT [1]: 18.6 IU/L
AST [1]: 55 IU/L
BUN [1]: 17.2 mg/dL
CRE [1]: 0.5 mg/dL
Ca [1]: 10.9 mg/dL
Cl [1]: 103.4 meq/L
DBIL [1]: 0.014 mg/dL
GLC [1]: 204.2 mg/dL
IP [1]: 8.6 mg/dL
K [1]: 5 meq/L
LDH [1]: 93.4 IU/L
Na [1]: 140.6 meq/L
PL [1]: 158.6 mg/dL
RALB [1]: 3.7 g/dL
TBIL [1]: 0.3 mg/dL
TC [1]: 81.4 mg/dL
TG [1]: 104.6 mg/dL
TP [1]: 6 g/dL
gamma-GTP [1]: 1 IU/L
TERMINAL_BW [2]: 244.8 g
TERMINAL_BW [3]: 283.5 g
TERMINAL_BW [4]: 361.7 g
APTT [2]: 16.2 s
Bas [2]: 0%
Eos [2]: 1%
Fbg [2]: 234.8 mg/dL
Hb [2]: 13.6 g/dL
Ht [2]: 40.6%
Lym [2]: 84.2%
MCH [2]: 21.2 pg
MCHC [2]: 33.5%
MCV [2]: 63.2 fL
Mono [2]: 6.6%
Neu [2]: 8.8%
PT [2]: 12.2 s
Plat [2]: 121.4 x10_4/uL
RBC [2]: 641.8 x10_4/ul
Ret [2]: 6.3%
WBC [2]: 150.1 x10_2/uL
APTT [3]: 15.7 s
Bas [3]: 0%
Eos [3]: 0.8%
Fbg [3]: 221.4 mg/dL
Hb [3]: 13.9 g/dL
Ht [3]: 41.4%
Lym [3]: 83.4%
MCH [3]: 19.7 pg
MCHC [3]: 33.6%
MCV [3]: 58.6 fL
Mono [3]: 4.6%
Neu [3]: 10.8%
PT [3]: 12.1 s
Plat [3]: 125.3 x10_4/uL
RBC [3]: 706.6 x10_4/ul
Ret [3]: 5.1%
WBC [3]: 172.6 x10_2/uL
APTT [4]: 16.3 s
Bas [4]: 0%
Eos [4]: 1.4%
Fbg [4]: 227.4 mg/dL
Hb [4]: 14.4 g/dL
Ht [4]: 42.8%
Lym [4]: 80.6%
MCH [4]: 18.6 pg
MCHC [4]: 33.8%
MCV [4]: 55 fL
Mono [4]: 3.6%
Neu [4]: 14.4%
PT [4]: 12.2 s
Plat [4]: 119.2 x10_4/uL
RBC [4]: 780 x10_4/ul
Ret [4]: 2.9%
WBC [4]: 151.6 x10_2/uL
KIDNEY_L [2]: 1.1 g
KIDNEY_R [2]: 1.1 g
KIDNEY_TOTAL [2]: 2.2 g
KIDNEY_L [3]: 1.2 g
KIDNEY_R [3]: 1.2 g
KIDNEY_TOTAL [3]: 2.5 g
KIDNEY_L [4]: 1.4 g
KIDNEY_R [4]: 1.5 g
KIDNEY_TOTAL [4]: 2.9 g
LIVER [2]: 11.5 g
LIVER [3]: 12.7 g
LIVER [4]: 15.3 g
A/G [2]: 1.6
ALP [2]: 823.2 IU/L
ALT [2]: 15.4 IU/L
AST [2]: 56.6 IU/L
BUN [2]: 18.4 mg/dL
CRE [2]: 0.5 mg/dL
Ca [2]: 10.3 mg/dL
Cl [2]: 105.4 meq/L
DBIL [2]: 0.052 mg/dL
GLC [2]: 215.4 mg/dL
IP [2]: 8.4 mg/dL
K [2]: 4.9 meq/L
LDH [2]: 92.2 IU/L
Na [2]: 139.4 meq/L
PL [2]: 134.8 mg/dL
RALB [2]: 3.6 g/dL
TBIL [2]: 0.3 mg/dL
TC [2]: 70.4 mg/dL
TG [2]: 91.6 mg/dL
TP [2]: 5.9 g/dL
gamma-GTP [2]: 1 IU/L
A/G [3]: 1.7
ALP [3]: 722 IU/L
ALT [3]: 11.8 IU/L
AST [3]: 53.4 IU/L
BUN [3]: 19.6 mg/dL
CRE [3]: 0.5 mg/dL
Ca [3]: 10.4 mg/dL
Cl [3]: 106 meq/L
DBIL [3]: 0.04 mg/dL
GLC [3]: 217.2 mg/dL
IP [3]: 8 mg/dL
K [3]: 5.1 meq/L
LDH [3]: 92 IU/L
Na [3]: 138.6 meq/L
PL [3]: 140.4 mg/dL
RALB [3]: 3.8 g/dL
TBIL [3]: 0.4 mg/dL
TC [3]: 70 mg/dL
TG [3]: 94.8 mg/dL
TP [3]: 6.1 g/dL
gamma-GTP [3]: 1 IU/L
A/G [4]: 1.4
ALP [4]: 589.6 IU/L
ALT [4]: 11.6 IU/L
AST [4]: 55.2 IU/L
BUN [4]: 20.2 mg/dL
CRE [4]: 0.5 mg/dL
Ca [4]: 10 mg/dL
Cl [4]: 104.6 meq/L
DBIL [4]: 0.024 mg/dL
GLC [4]: 222.6 mg/dL
IP [4]: 6.9 mg/dL
K [4]: 4.5 meq/L
LDH [4]: 75.8 IU/L
Na [4]: 140.6 meq/L
PL [4]: 141.8 mg/dL
RALB [4]: 3.6 g/dL
TBIL [4]: 0.2 mg/dL
TC [4]: 68.6 mg/dL
TG [4]: 105.4 mg/dL
TP [4]: 6.2 g/dL
gamma-GTP [4]: 1 IU/L
TERMINAL_BW [5]: 211.3 g
APTT [5]: 15.3 s
Bas [5]: 0%
Eos [5]: 0.8%
Fbg [5]: 228.6 mg/dL
Hb [5]: 13.5 g/dL
Ht [5]: 40.4%
Lym [5]: 78.4%
MCH [5]: 21.5 pg
MCHC [5]: 33.5%
MCV [5]: 64.1 fL
Mono [5]: 4.6%
Neu [5]: 16%
PT [5]: 12 s
Plat [5]: 140.8 x10_4/uL
RBC [5]: 629.8 x10_4/ul
Ret [5]: 6.5%
WBC [5]: 96.9 x10_2/uL
KIDNEY_L [5]: 1 g
KIDNEY_R [5]: 1.1 g
KIDNEY_TOTAL [5]: 2.1 g
LIVER [5]: 10.5 g
A/G [5]: 1.9
ALP [5]: 722.8 IU/L
ALT [5]: 10.6 IU/L
AST [5]: 44.4 IU/L
BUN [5]: 19 mg/dL
CRE [5]: 0.5 mg/dL
Ca [5]: 10.6 mg/dL
Cl [5]: 104.8 meq/L
DBIL [5]: 0.006 mg/dL
GLC [5]: 209.6 mg/dL
IP [5]: 7.6 mg/dL
K [5]: 5.1 meq/L
LDH [5]: 95.8 IU/L
Na [5]: 140.2 meq/L
PL [5]: 140.6 mg/dL
RALB [5]: 3.8 g/dL
TBIL [5]: 0.3 mg/dL
TC [5]: 78.6 mg/dL
TG [5]: 63 mg/dL
TP [5]: 5.8 g/dL
gamma-GTP [5]: 1.4 IU/L
TERMINAL_BW [6]: 228.8 g
TERMINAL_BW [7]: 255.7 g
TERMINAL_BW [8]: 314.6 g
APTT [6]: 16.3 s
Bas [6]: 0%
Eos [6]: 0.6%
Fbg [6]: 236.4 mg/dL
Hb [6]: 13.6 g/dL
Ht [6]: 40.5%
Lym [6]: 81.4%
MCH [6]: 20 pg
MCHC [6]: 33.5%
MCV [6]: 59.7 fL
Mono [6]: 4.6%
Neu [6]: 13.2%
PT [6]: 12.1 s
Plat [6]: 138 x10_4/uL
RBC [6]: 678.2 x10_4/ul
Ret [6]: 4.7%
WBC [6]: 126.4 x10_2/uL
APTT [7]: 16.2 s
Bas [7]: 0%
Eos [7]: 1.2%
Fbg [7]: 212.8 mg/dL
Hb [7]: 13.3 g/dL
Ht [7]: 39.7%
Lym [7]: 73.4%
MCH [7]: 18.9 pg
MCHC [7]: 33.6%
MCV [7]: 56.2 fL
Mono [7]: 5.8%
Neu [7]: 19.8%
PT [7]: 12.3 s
Plat [7]: 134 x10_4/uL
RBC [7]: 707.4 x10_4/ul
Ret [7]: 5.4%
WBC [7]: 130.8 x10_2/uL
APTT [8]: 15.9 s
Bas [8]: 0%
Eos [8]: 0.8%
Fbg [8]: 226.2 mg/dL
Hb [8]: 13 g/dL
Ht [8]: 39%
Lym [8]: 84.2%
MCH [8]: 16.6 pg
MCHC [8]: 33.2%
MCV [8]: 50 fL
Mono [8]: 5.5%
Neu [8]: 9.2%
PT [8]: 12.2 s
Plat [8]: 130.1 x10_4/uL
RBC [8]: 781.8 x10_4/ul
Ret [8]: 3.8%
WBC [8]: 181.2 x10_2/uL
KIDNEY_L [6]: 1.2 g
KIDNEY_R [6]: 1.2 g
KIDNEY_TOTAL [6]: 2.3 g
KIDNEY_L [7]: 1.2 g
KIDNEY_R [7]: 1.2 g
KIDNEY_TOTAL [7]: 2.3 g
KIDNEY_L [8]: 1.4 g
KIDNEY_R [8]: 1.4 g
KIDNEY_TOTAL [8]: 2.8 g
LIVER [6]: 11.1 g
LIVER [7]: 12.1 g
LIVER [8]: 12.6 g
A/G [6]: 1.6
ALP [6]: 757.4 IU/L
ALT [6]: 8.6 IU/L
AST [6]: 46.8 IU/L
BUN [6]: 16.2 mg/dL
CRE [6]: 0.5 mg/dL
Ca [6]: 10.4 mg/dL
Cl [6]: 105 meq/L
DBIL [6]: 0.028 mg/dL
GLC [6]: 212.2 mg/dL
IP [6]: 8 mg/dL
K [6]: 5.1 meq/L
LDH [6]: 77.6 IU/L
Na [6]: 140.6 meq/L
PL [6]: 127.8 mg/dL
RALB [6]: 3.8 g/dL
TBIL [6]: 0.3 mg/dL
TC [6]: 64.4 mg/dL
TG [6]: 62.2 mg/dL
TP [6]: 6.1 g/dL
gamma-GTP [6]: 1.2 IU/L
A/G [7]: 1.7
ALP [7]: 587.6 IU/L
ALT [7]: 8.8 IU/L
AST [7]: 48.4 IU/L
BUN [7]: 20.4 mg/dL
CRE [7]: 0.6 mg/dL
Ca [7]: 10.3 mg/dL
Cl [7]: 106.8 meq/L
DBIL [7]: 0.004 mg/dL
GLC [7]: 210.8 mg/dL
IP [7]: 7.8 mg/dL
K [7]: 5.1 meq/L
LDH [7]: 123.4 IU/L
Na [7]: 139.8 meq/L
PL [7]: 123.2 mg/dL
RALB [7]: 3.7 g/dL
TBIL [7]: 0.3 mg/dL
TC [7]: 60.2 mg/dL
TG [7]: 61.8 mg/dL
TP [7]: 5.9 g/dL
gamma-GTP [7]: 0.2 IU/L
A/G [8]: 1.6
ALP [8]: 533 IU/L
ALT [8]: 6.8 IU/L
AST [8]: 49.8 IU/L
BUN [8]: 19.5 mg/dL
CRE [8]: 0.6 mg/dL
Ca [8]: 9.9 mg/dL
Cl [8]: 106 meq/L
DBIL [8]: 0.0525 mg/dL
GLC [8]: 212.5 mg/dL
IP [8]: 6.7 mg/dL
K [8]: 4.9 meq/L
LDH [8]: 81.2 IU/L
Na [8]: 140.8 meq/L
PL [8]: 108.2 mg/dL
RALB [8]: 3.6 g/dL
TBIL [8]: 0.2 mg/dL
TC [8]: 53.8 mg/dL
TG [8]: 41.8 mg/dL
TP [8]: 5.8 g/dL
gamma-GTP [8]: 1.5 IU/L
